Counter-ions that a name gives are not always drawn.
Tests used:
Assay in all cases: PDSP primary radioligand binding assay
Dopamine receptor D3 = molecular target: T1, Dopamine receptor D3 (Rattus norvegicus, UniProt P19020); settings: compound 10 μM; for inhibition at 10 µM: n=4, read-out: mean percentage inhibition, Dopamine receptor D3
T1 construct: expressed in transfected cells
Method: (§1) Primary and secondary radioligand binding assays are performed. In general, the primary assay is run at very high ligand (compound) concentration as a broad screen to determine whether a compound binds to a particular receptor. If greater than 50% inhibition at 10 μM (high concentration of compound) at a particular receptor is determined, a secondary assay is performed on that receptor. Data from the secondary assay is the binding affinity (Ki value).
(§2) A solution of the compound to be tested is prepared as a 1 mg/ml stock in Standard Binding Buffer or dimethyl sulfoxide (DMSO) according to its solubility. A similar stock of a reference compound (positive control) is also prepared.
(§3) Radioligand (radioligands are presented in Table 39) is diluted to five times the assay concentration (assay concentrations are presented in Table 39) in Standard Binding Buffer. Typically, the assay concentration of radioligand is a value between one half the KD and the KD of a particular radioligand at its target. Aliquots (50 μL) of radioligand are dispensed into the wells of a 96-well plate (see FIG. 11) containing 100 μL of Standard Binding Buffer (Table 40). Then, duplicate 50 μL aliquots of the test and reference compound dilutions are added (see FIG. 11). According to FIG. 11, increasing concentrations (from left to right) of reference or test compound (diluted in buffer) are added (50 μL aliquots, in duplicate) from 5× stock solutions to wells containing 50 μL of 5× radioligand (fixed concentration, prepared in buffer) and 100 μL of buffer. Finally, 50 μL of receptor-containing membrane homogenate (5× suspension in buffer) are added to achieve a final assay volume of 250 μL. Final concentrations of reference or test compound are listed above the columns in FIG. 11.
(§4) Finally, crude membrane fractions of cells expressing recombinant target (prepared from 10 cm plates by harvesting phosphate buffered saline (PBS)-rinsed monolayers, resuspending and lysing in chilled, hypotonic 50 mM Tris-HCl, pH 7.4, centrifuging at 20,000×g, decanting the supernatant and storing at −80° C.; typically, one 10 cm plate provides sufficient material for 24 wells) are resuspended in 3 mL of chilled Standard Binding Buffer and homogenized by several passages through a 26 gauge needle, and then 50 μL are dispensed into each well.
(§5) The 250 μL reactions are incubated at room temperature and shielded from light (to prevent photolysis of light-sensitive ligands) for 1.5 hours, then harvested by rapid filtration onto Whatman GF/B glass fiber filters pre-soaked with 0.3% polyethyleneimine using a 96-well Brandel harvester. Four rapid 500 μL washes are performed with chilled Standard Binding Buffer to reduce non-specific binding. Filters are placed in 6 mL scintillation tubes and allowed to dry overnight. The next day, 4 mL of EcoScint scintillation cocktail (National Diagnostics) are added to each tube. The tubes are capped, labeled, and counted by liquid scintillation counting. For higher throughput assays, bound radioactivity is harvested onto 0.3% polyethyleneimine-treated, 96-well filter mats using a 96-well Filtermate harvester. The filter mats are dried, then scintillant is melted onto the filters, and the radioactivity retained on the filters is counted in a Microbeta scintillation counter.
(§6) Raw data (dpm) representing total radioligand binding (i.e., specific+non-specific binding) are plotted as a function of the logarithm of the molar concentration of the competitor (i.e., test or reference compound). […]

Dopamine receptor D2 = molecular target: T2, Dopamine receptor D2 (Homo sapiens, UniProt P14416); settings: compound 10 μM; for inhibition at 10 µM: n=4, read-out: mean percentage inhibition, Dopamine receptor D2
T2 construct: expressed in transfected cells
Method: as §1, §2, §3, §4, §5, §6

Dopamine receptor D4 = molecular target: T3, Dopamine receptor D4 (Homo sapiens, UniProt P21917); settings: compound 10 μM, n=4, read-out: mean percentage inhibition, Dopamine receptor D4
T3 construct: expressed in transfected cells
T3 sequence (P21917 1-419): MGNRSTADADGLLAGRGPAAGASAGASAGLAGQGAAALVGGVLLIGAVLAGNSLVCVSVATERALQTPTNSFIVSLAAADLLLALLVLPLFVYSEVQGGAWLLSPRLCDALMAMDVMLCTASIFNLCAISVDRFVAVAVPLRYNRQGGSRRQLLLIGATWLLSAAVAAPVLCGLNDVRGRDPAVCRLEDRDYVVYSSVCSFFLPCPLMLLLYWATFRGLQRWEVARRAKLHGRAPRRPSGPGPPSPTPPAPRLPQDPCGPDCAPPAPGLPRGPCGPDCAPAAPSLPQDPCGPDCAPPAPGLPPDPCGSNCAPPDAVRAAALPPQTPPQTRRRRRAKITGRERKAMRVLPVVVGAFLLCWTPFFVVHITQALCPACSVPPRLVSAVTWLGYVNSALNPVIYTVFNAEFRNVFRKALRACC
Method: as §1, §2, §3, §4, §5, §6

Dopamine D5 = molecular target: T4, Dopamine D5 (Homo sapiens, UniProt P21918); settings: compound 10 μM
T4 construct: expressed in transfected cells
Method: as §1, §2, §3, §4, §5, §6

T2 sequence (P14416 whole entry): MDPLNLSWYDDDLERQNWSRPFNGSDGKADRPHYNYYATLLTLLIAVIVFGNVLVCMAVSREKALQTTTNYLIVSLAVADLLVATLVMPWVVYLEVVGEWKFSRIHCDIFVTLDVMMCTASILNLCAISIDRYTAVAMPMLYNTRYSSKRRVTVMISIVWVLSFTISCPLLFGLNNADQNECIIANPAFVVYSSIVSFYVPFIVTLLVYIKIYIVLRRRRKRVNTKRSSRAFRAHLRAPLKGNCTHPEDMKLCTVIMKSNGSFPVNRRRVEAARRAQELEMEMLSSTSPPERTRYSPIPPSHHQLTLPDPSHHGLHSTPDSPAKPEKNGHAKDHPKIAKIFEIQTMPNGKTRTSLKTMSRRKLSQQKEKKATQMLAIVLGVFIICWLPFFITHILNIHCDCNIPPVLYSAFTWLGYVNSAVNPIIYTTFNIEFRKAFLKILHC
T1 sequence (P19020 whole entry): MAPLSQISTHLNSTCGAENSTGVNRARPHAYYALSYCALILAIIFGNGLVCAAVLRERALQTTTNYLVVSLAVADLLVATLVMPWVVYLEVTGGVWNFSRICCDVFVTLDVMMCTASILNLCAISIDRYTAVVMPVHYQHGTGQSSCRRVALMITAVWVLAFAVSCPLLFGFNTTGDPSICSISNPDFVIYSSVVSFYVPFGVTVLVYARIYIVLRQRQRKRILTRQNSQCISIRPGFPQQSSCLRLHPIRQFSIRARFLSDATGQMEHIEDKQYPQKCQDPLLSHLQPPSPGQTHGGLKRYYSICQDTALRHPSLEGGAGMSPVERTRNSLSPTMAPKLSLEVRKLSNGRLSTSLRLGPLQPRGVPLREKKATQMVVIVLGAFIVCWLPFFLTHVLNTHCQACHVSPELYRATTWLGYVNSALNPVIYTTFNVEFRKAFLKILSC
T4 sequence (P21918 whole entry): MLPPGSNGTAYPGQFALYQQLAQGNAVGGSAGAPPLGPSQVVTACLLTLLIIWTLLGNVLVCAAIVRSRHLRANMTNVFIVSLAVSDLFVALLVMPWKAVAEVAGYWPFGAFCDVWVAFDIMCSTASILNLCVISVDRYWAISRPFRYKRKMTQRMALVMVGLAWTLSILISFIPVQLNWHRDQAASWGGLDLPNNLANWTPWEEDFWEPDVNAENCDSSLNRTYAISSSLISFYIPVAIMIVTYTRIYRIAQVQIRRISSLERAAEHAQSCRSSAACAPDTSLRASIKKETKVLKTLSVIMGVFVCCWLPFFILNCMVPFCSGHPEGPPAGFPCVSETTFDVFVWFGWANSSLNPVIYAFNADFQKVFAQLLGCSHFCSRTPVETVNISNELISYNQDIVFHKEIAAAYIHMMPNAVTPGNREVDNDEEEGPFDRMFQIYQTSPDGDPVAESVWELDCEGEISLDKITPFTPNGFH

SMILES | mean percentage inhibition, Dopamine receptor D3 (Dopamine receptor D3; n=4, hydrochloride, 10 µM) [%] | inhibition at 10 µM (Dopamine receptor D3) [%] | inhibition at 10 µM (Dopamine receptor D2) [%] | inhibition at 10 µM (Dopamine receptor D4) [%] | binding at 10 μM, Dopamine D5 (Dopamine D5) [%] | mean percentage inhibition, Dopamine receptor D2 (Dopamine receptor D2; n=4, hydrochloride, 10 µM) [%]
CCCOc1cc2c(cn1)[nH]c1ccncc12 [Compound 2, 8-Propoxypyridino[4′,3′-5,4]pyrrolo[3,2-c]pyridine hydrochloride] | 31.8 | < 50 | > 50 | > 50 | < 50 | 
CCCOc1cc2c(cn1)[nH]c1cnccc12 [Compound 4, 3-Propoxy pyridino[4′,3′-4,5]pyrrolo[2,3-c]pyridine hydrochloride] |  | 24.1 | > 50 | -18.1 | < 50 | 50

— patent publication US8268854B2, “Aza-beta-carbolines and methods of using same” (The UWM Research Foundation, Inc., priority 2008, dated 2012)
